Reference: patent publication US20260374766A1, “METHODS FOR TREATING CANCER” (Antares Therapeutics, Inc., priority 2022, published 2026)
Counter-ions that a name gives are not always drawn. Like-named read-outs stand apart in the source and are kept apart here.

Legend:
[1] = target: T1, p53 Y220C mutant protein (amino acid residues 94-293) (Homo sapiens, UniProt P04637, Y220C); assay: Surface Plasmon Resonance (SPR) assay, Kd_kinetic; format: binding; conditions: SPR, p53 Y220C, read-out: SPR P53 Y220C KD kinetic
T1 construct: p53 Y220C mutant protein (amino acid residues 94-293)
In short: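 Biacore 8K SPR; 16 or 20 °C; Tris 50 mM pH 7.5, NaCl 100 mM, DTT 1 mM, Brij35 0.01%, Tween-20 0.05%, DMSO 1%. Kd_kinetic by 1:1 fit.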

p53 Y220C = p53 Y220C (Homo sapiens, UniProt P04637, Y220C); assay: Luciferase Reporter Assay (Luc), p53 response element, NClH1299 cells with inducible p53 Y220C; format: cell-based; conditions: luciferase reporter, NClH1299 inducible p53 Y220C, 6 hour; for AC50: read-out: Luc P53 Y220C AC50
In short: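 Luciferase activity is measured directly after One-Glo addition and a 5-minute room-temperature shake. Before that, cells plated at 5,000 per well receive doxycycline at 0.5 ug/mL for 24 hours, followed by compound for 6 hours.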

H1299 p53 R273H = assay: Cell Proliferation Assay (CellTiter-Glo, CTG), H1299 p53 R273H (NClH1299-inducible p53 R273H); format: cell-based; conditions: Homo sapiens, NCI-H1299, 120 h, CellTiter-Glo, 5 days
In short: (§1)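 NClH1299 lines stably transduced with Tet-inducible p53 Y220C or R273H, plus NUGC3, were treated with compound for 5 days at 250-500 cells/well. IC50 derived from CellTiter-Glo luminescent signal after 10 min room-temperature incubation.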

H1299 p53 Y220C = assay: Cell Proliferation Assay (CellTiter-Glo, CTG), H1299 p53 Y220C (NClH1299-inducible p53 Y220C); format: cell-based; conditions: Homo sapiens, NCI-H1299, 120 h, CellTiter-Glo, 5 days
In short: as §1

NUGC3 p53 Y220C = assay: Cell Proliferation Assay (CellTiter-Glo, CTG), NUGC3 p53 Y220C; format: cell-based; conditions: Homo sapiens, NUGC-3, 120 h, CellTiter-Glo, 5 days
In short: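 Tet-One inducible p53 Y220C or R273H constructs were stably introduced into NCI-H1299 by lentiviral transduction; NUGC3 was used as is. Cells (250-500 per well) were exposed to compound for 5 days, then CellTiter-Glo was added for 10 min at room temperature and IC50 was calculated from luminescence.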

[2] = target: T1, p53 Y220C mutant protein (amino acid residues 94-293); assay: Thermal Shift Assay (TSA), dTM; format: binding; conditions: for ΔTm at 100 µM: 100 uM compound, read-out: TSA P53 Y220C dTM (100 uM); for ΔTm at 10 µM: 10 uM compound
Method: Thermal Shift Assay (TSA) Protocol
5 μM recombinant p53 Y220C mutant protein (amino acid residues 94-293) was incubated with 10 μM or 100 μM compound for 3 hours at 20 °C in buffer containing 20 mM HEPES, pH7.4, 100 mM NaCl, 0.01% Pluronic F-127, and 1% DMSO in the presence of 400-fold diluted Sypro Orange (ThermoFisher Scientific catalog number 4461146), on a 384-well PCR plate (Applied Biosystems catalog number 4483285). The volume was 5 μL/well. The sealed plate was then loaded onto a QuantStudio 7 Flex instrument for melting temperature (TM) measurement. The temperature was increased from 30 °C to […], at a rate of 0.03 °C/second. Data were fit into a Boltzmann two-state model to determine the TM.

[3] = 10 uM tool compound as positive control
[4] = thermal shift, read-out: TSA P53 Y220C dTM (10 uM)

SMILES | Kd ([1]; kinetic KD) [nM] | Emax (p53 Y220C; [3]) [%] | AC50 (p53 Y220C) [nM] | IC50 (H1299 p53 R273H; H1299 p53 R273H) [nM] | IC50 (H1299 p53 Y220C; H1299 p53 Y220C) [nM] | ΔTm at 100 µM ([2]; thermal shift) [°C] | Kd [1] [nM] | AC50 (p53 Y220C; AC50) [nM] | Emax (p53 Y220C; Emax) [%] | IC50 (H1299 p53 R273H; NClH1299-inducible p53 R273H cells) [nM] | IC50 (H1299 p53 Y220C; NClH1299-inducible p53 Y220C cells) [nM] | ΔTm at 10 µM ([2]; p53 Y220C, read-out: TSA P53 Y220C dTM) [°C] | ΔTm at 10 µM [2, 4] [°C] | IC50 (NUGC3 p53 Y220C; NUGC3 p53 Y220C) [nM] | IC50 (NUGC3 p53 Y220C; NUGC3 cells) [nM]
CNC(=O)c1ccc(NCC#Cc2nc3c(N[C@@H]4CCN(C)CC4(F)F)cccn3c2CC(F)(F)F)c(OC)c1 (single isomer, unassigned) [Example 37] | > 1000 | < 70 | > 3000 | ≥ 10000 | > 3000 | 5 to 10 |  |  |  |  |  |  |  | > 3000 | 
CNC(=O)c1ccc(NCC#Cc2nc3c(N[C@H]4CCN(C)CC4(F)F)cccn3c2CC(F)(F)F)c(OC)c1 (single isomer, unassigned) [Example 38] | > 1000 | < 70 | > 3000 | ≥ 10000 | > 3000 | 5 to 10 |  |  |  |  |  |  |  | > 3000 | 
CNC(=O)c1ccc(OC[C@H](C)O)c(NCC#Cc2cc3c(N[C@@H]4CCN(C)C[C@@H]4F)nccn3c2SC(F)(F)F)c1 (single isomer, unassigned) [Example 355] |  |  |  |  |  |  | < 10 | < 750 | > 90 | ≥ 10000 | < 750 | ≥ 10 |  |  | < 750
CNC(=O)c1ccc(NCC#Cc2nc3c(N[C@@H]4CCN(C)C[C@@H]4F)cccn3c2SC(F)(F)F)c(OC)c1 [Example 28, 4-{[3-(8-{[(3S,4R)-3-fluoro-1-methylpiperidin-4-yl]amino}-3-[(trifluoromethyl)sulfanyl]imidazo[1,2-a]pyridin-2-yl)prop-2-yn-1-yl]amino}-3-methoxy-N-methylbenzamide, formic acid salt] |  | 80 to 90 | < 750 | 8000 to 10000 | < 750 | ≥ 10 |  |  |  |  |  |  | ≥ 10 | < 750 | 
C=CC(=O)Nc1cc(NC2CCN(C)CC2)c2nc(C#CCNc3ccc(C(=O)NC)cc3OC)c(CC(F)(F)F)n2c1 [Example 42, 3-methoxy-N-methyl-4-[(3-{8-[(1-methylpiperidin-4-yl)amino]-6-(prop-2-enamido)-3-(2,2,2-trifluoroethyl)imidazo[1,2-a]pyridin-2-yl}prop-2-yn-1-yl)amino]benzamide] |  | < 70 | > 3000 | ≥ 10000 | > 3000 | < 1 |  |  |  |  |  |  |  | > 3000 | 
CNC(=O)c1ccc(NCC#Cc2nc3c(NC4CCN(C)CC4)cc(NC(=O)C(F)Cl)cn3c2CC(F)(F)F)c(OC)c1 (stereo not shown) [Example 43, 4-((3-[6-(2-chloro-2-fluoroacetamido)-8-[(1-methylpiperidin-4-yl)amino]-3-(2,2,2-trifluoroethyl)imidazo[1,2-a]pyridin-2-yl]prop-2-yn-1-ylamino)-3-methoxy-N-methylbenzamide, formic acid salt] |  | < 70 | > 3000 | ≥ 10000 | > 3000 | 1 to 5 |  |  |  |  |  |  |  | > 3000 | 
CN1CC[C@@H](Nc2cccn3c(CC(F)(F)F)c(C#CCN)nc23)[C@@H](F)C1 [Example 75, (3S,4R)—N-[2-(3-aminoprop-1-yn-1-yl)-3-(2,2,2-trifluoroethyl)imidazo[1,2-a]pyridin-8-yl]-3-fluoro-1-methylpiperidin-4-amine] |  | < 70 | > 3000 | ≥ 10000 | > 3000 | 1 to 5 |  |  |  |  |  |  |  | > 3000 | 
C=C(F)C(=O)Nc1cc(NC2CCN(C)CC2)c2nc(C#CCNc3ccc(C(=O)NC)cc3OC)c(CC(F)(F)F)n2c1 [Example 90, 4-({3-[6-(2-fluoroprop-2-enamido)-8-[(1-methylpiperidin-4-yl)amino]-3-(2,2,2-trifluoroethyl)imidazo[1,2-a]pyridin-2-yl]prop-2-yn-1-yl}amino)-3-methoxy-N-methylbenzamide] |  | < 70 | > 3000 | ≥ 10000 | > 3000 | 1 to 5 |  |  |  |  |  |  |  | > 3000 | 
CNC(=O)c1ccc(NCC#Cc2nc3c(N[C@@H]4CCN(C)C[C@@H]4F)cc(F)cn3c2CC(F)(F)F)c(OC)c1 [Example 99, 4-{[3-(6-fluoro-8-{[(3S,4R)-3-fluoro-1-methylpiperidin-4-yl]amino}-3-(2,2,2-trifluoroethyl)imidazo[1,2-a]pyridin-2-yl)prop-2-yn-1-yl]amino}-3-methoxy-N-methylbenzamide, formic acid salt] |  | 80 to 90 | 750 to 1500 | 5000 to 8000 | 750 to 1500 | ≥ 10 |  |  |  |  |  |  |  | 750 to 1500 | 
COc1cc(P(C)(C)=O)ccc1NCC#Cc1cc2c(N[C@@H]3CCN(C)C[C@@H]3F)nccn2c1SC(F)(F)F [Example 185, (3S,4R)—N-[7-(3-{[4-(dimethylphosphoryl)-2-methoxyphenyl]amino}prop-1-yn-1-yl)-6-[(trifluoromethyl)sulfanyl]pyrrolo[1,2-a]pyrazin-1-yl]-3-fluoro-1-methylpiperidin-4-amine; formic acid] |  | 80 to 90 | < 750 | ≥ 10000 | < 750 |  |  |  |  |  |  |  | ≥ 10 | < 750 | 

The next lines start with results.

Kd ([1]; kinetic KD) [nM] | Emax (p53 Y220C; [3]) [%] | AC50 (p53 Y220C) [nM] | IC50 (H1299 p53 R273H; H1299 p53 R273H) [nM] | IC50 (H1299 p53 Y220C; H1299 p53 Y220C) [nM] | ΔTm at 100 µM ([2]; thermal shift) [°C] | Kd [1] [nM] | AC50 (p53 Y220C; AC50) [nM] | Emax (p53 Y220C; Emax) [%] | IC50 (H1299 p53 R273H; NClH1299-inducible p53 R273H cells) [nM] | IC50 (H1299 p53 Y220C; NClH1299-inducible p53 Y220C cells) [nM] | ΔTm at 10 µM ([2]; p53 Y220C, read-out: TSA P53 Y220C dTM) [°C] | ΔTm at 10 µM [2, 4] [°C] | SMILES | IC50 (NUGC3 p53 Y220C; NUGC3 p53 Y220C) [nM] | IC50 (NUGC3 p53 Y220C; NUGC3 cells) [nM]
 | < 70 | > 3000 | ≥ 10000 | > 3000 | 5 to 10 |  |  |  |  |  |  |  | COc1cc(S(C)(=O)=O)ccc1NCC#Cc1nc2c(NC3CCN(C)CC3)cc(O)cn2c1CC(F)(F)F [Example 27, 2-{3-[(4-methanesulfonyl-2-methoxyphenyl)amino]prop-1-yn-1-yl}-8-[(1-methylpiperidin-4-yl)amino]-3-(2,2,2-trifluoroethyl)imidazo[1,2-a]pyridin-6-ol, TFA salt] | > 3000 | 
 | < 70 | > 3000 | < 5000 | 1500 to 3000 | 1 to 5 |  |  |  |  |  |  |  | COc1cc(S(C)(=O)=O)ccc1NCC#Cc1nc2c(NC3CCN(C)CC3)cc(-c3ccccc3)cn2c1CC(F)(F)F [Example 34, N-(2-{3-[(4-methanesulfonyl-2-methoxyphenyl)amino]prop-1-yn-1-yl}-6-phenyl-3-(2,2,2-trifluoroethyl)imidazo [1,2-a]pyridin-8-yl)-1-methylpiperidin-4-amine, formic acid salt] | 1500 to 3000 | 
 | < 70 | > 3000 | ≥ 10000 | > 3000 | 1 to 5 |  |  |  |  |  |  |  | CNC(=O)c1ccc(NCC#Cc2nc3c(NC4CCN(C)CC4)cc(NC(C)=O)cn3c2CC(F)(F)F)c(OC)c1 [Example 41, 4-[(3-{6-acetamido-8-[(1-methylpiperidin-4-yl)amino]-3-(2,2,2-trifluoroethyl)imidazo[1,2-a]pyridin-2-yl}prop-2-yn-1-yl)amino]-3-methoxy-N-methylbenzamide] | > 3000 | 
 | < 70 | > 3000 | ≥ 10000 | > 3000 | 1 to 5 |  |  |  |  |  |  |  | CNC(=O)c1ccc(NCC#Cc2nc3c(NC4CCN(C)CC4)cc(NC(=O)OC)cn3c2CC(F)(F)F)c(OC)c1 [Example 45, methyl N-[2-(3-{[2-methoxy-4-(methylcarbamoyl)phenyl]amino}prop-1-yn-1-yl)-8-[(1-methylpiperidin-4-yl)amino]-3-(2,2,2-trifluoroethyl)imidazo[1,2-a]pyridin-6-yl]carbamate] | > 3000 | 
 | < 70 | > 3000 | ≥ 10000 | > 3000 | ≥ 10 |  |  |  |  |  |  |  | CNC(=O)c1ccc(NCC#Cc2nc3c(NC4CCN(C)CC4)cc(NC(=O)CCl)cn3c2CC(F)(F)F)c(OC)c1 [Example 91] | > 3000 | 
